The nature of one series: Aqueous solubility. It counts as physicochemical. The text has this:
These characteristics challenge the ordinary skills and conventional methodologies in this technology, particularly when it comes to the preparation of formulations of these compounds that are to be readily used for medical purposes. Such uses preferably rely on formulations whose characteristics include one or more of the following: biocompatibility, stability under ambient conditions, or under conditions that are as near to ambient conditions as possible, with a shelf life that is as long as possible, and easy reconstitutability to form reconstituted solutions that are as stable under ambient, or near ambient conditions, for as long as possible.

Series [1] has as its system xenografted human cell lines in mice, such as breast and prostate. The note with it: several xenografted human cell lines in mice; cited from earlier work. In general terms: A xenograft is tissue or cells of one species grown in another, often human tumour cells in immunodeficient mice.
Series [2] relates to solid and non-solid tumor cell lines. The note with it: cited from earlier work.

As for `COc1c(C)cc2c(c1O)[C@@H]1[C@@H]3Cc4c(OC(C)=O)c(C)c5c(c4[C@H](COC(=O)/C=C/c4ccccc4)N3[C@@H](O)[C@H](C2)N1C)OCO5` [PM00121], the aqueous solubility result in “Aqueous solubility” is “limited aqueous solubility”.

In the case of `COc1c(C)cc2c(c1O)[C@@H]1[C@@H]3Cc4c(OC(C)=O)c(C)c5c(c4[C@H](CNC(=O)/C=C/c4cccc(C(F)(F)F)c4)N3[C@@H](O)[C@H](C2)N1C)OCO5` [PM00104], the in vivo activity result in series [1] is recorded as “significant in vivo activity”. Also, the in vitro activity result in series [2] is given as “significant in vitro activity”. Further, the aqueous solubility result in the series “Aqueous solubility” is given as “limited aqueous solubility”.

The values are drawn from patent US9192568B2, “Formulations comprising jorumycin-, renieramycin-, safracin- or saframycin-related compounds for treating proliferative diseases” (Pharma Mar, S.A., priority 2005, dated 2015).
